Measurements reported in BigSolDB 2.1.

CC1=C(C(=O)O)N2C(=O)[C@@H](NC(=O)[C@H](N)C3=CCC=CC3)[C@H]2SC1
solubility (mole fraction)
Conditions	283.15 K	285.15 K	288.15 K	291.15 K	293.15 K	298.15 K	303.15 K	308.15 K
in ethanol	0.000187	0.000195	0.000217	0.000233	0.000249	0.000299	0.000368	0.000442
in methanol	0.000575	0.00061	0.00065	0.000702	0.000738	0.000845	0.000955	0.00108
in n-butanol	0.000265	0.000288	0.000335	0.000369	0.000405	0.000478	0.000567	0.000657
in n-propanol	0.00019	0.000198	0.000214	0.000238	0.000253	0.000319	0.000381	0.000469
in water	0.00114	–	0.00115	–	0.00116	0.00117	0.00118	0.0012
